Here are results for 32 compounds from ChEMBL document CHEMBL1121945, “Nitrogen bridgehead compounds. 18. New antiallergic 4H-pyrido[1,2-a]pyrimidin-4-ones. 1” (J Med Chem, 1982).

Holding throughout (format): functional
The test system of test [1] is Rattus norvegicus. As to the kind of experiment: Inhibition of rat passive cutaneous anaphylaxis (PCA) reaction after intravenous administration. The note with it: Rattus norvegicus, iv; read-out: ID50 (the source's name).
The test system of test [2] is Rattus norvegicus. In words: Inhibition of rat passive cutaneous anaphylaxis (PCA) reaction was determined after oral administration. As to conditions: Rattus norvegicus, po; read-out: ID50 (the source's name).
The species named for test [3] is Rattus norvegicus. As to the kind of experiment: Inhibition of histamine release from sensitized rat mast cells in vitro.
The mark [4] stands for this setting: Rattus norvegicus, Mast cell, read-out: EC50.

Each structure is given as a SMILES string.

`CC1CC/C(=N\Nc2ccccc2F)c2ncc(C(=O)O)c(=O)n21` (stereo unspecified): the ED50 with Rattus norvegicus [1] is 5 µmol/kg; with Rattus norvegicus [2] it was over 1000 µmol/kg. For the same compound, the EC50 in the test filed under Rattus norvegicus [3] (setting [4]) was 1200 nM.

Take `CC1CCn2c(ncc(C(=O)O)c2=O)/C1=N/Nc1ccccc1` (stereo unspecified): the results for the ED50 in the test on Rattus norvegicus [1] and in the test with Rattus norvegicus [2] were 32 µmol/kg and over 320 µmol/kg, respectively. Further, the EC50 in the test listed under Rattus norvegicus [3] (setting [4]) is 5400 nM.

For `CC1CC/C(=N\Nc2ccccc2)c2nccc(=O)n21` (stereo unspecified), the ED50 with Rattus norvegicus [2] is over 100 µmol/kg.

With `Cc1cccc(N/N=C2\CCC(C)n3c2ncc(C(=O)O)c3=O)c1` (stereo unspecified), the ED50 amounted to 0.4 µmol/kg in the test on Rattus norvegicus [1] and 72.5 µmol/kg in the test on Rattus norvegicus [2]. For the same compound, the EC50 in the test listed under Rattus norvegicus [3] (setting [4]) amounted to 72900 nM.

For `CC1CC/C(=N\Nc2ccccc2C(F)(F)F)c2ncc(C(=O)O)c(=O)n21` (stereo unspecified), the ED50 in the test with Rattus norvegicus [2] is over 1000 µmol/kg.

As to `CC1CC/C(=N\Nc2ccc(O)cc2)c2ncc(C(=O)O)c(=O)n21` (stereo unspecified), the figures for the ED50 in the test with Rattus norvegicus [1] and with Rattus norvegicus [2] were 1.7 µmol/kg and over 100 µmol/kg, respectively. Also, the EC50 in the test listed under Rattus norvegicus [3] (setting [4]) was 1300 nM.

For `CC1CC/C(=N\Nc2cccc(C(=O)O)c2)c2nccc(=O)n21` (stereo unspecified), the ED50 in the test with Rattus norvegicus [1] and in the test on Rattus norvegicus [2] was over 100 µmol/kg in each case. For the same compound, the EC50 in the test listed under Rattus norvegicus [3] (mast cells) is recorded as 655 uM l-1.

As to `CC1CC/C(=N\Nc2cccc(C(F)(F)F)c2)c2ncc(C(=O)O)c(=O)n21` (stereo unspecified), the ED50 in the test on Rattus norvegicus [2] was over 1000 µmol/kg.

Turning to `CCOc1ccccc1N/N=C1\CCC(C)n2c1ncc(C(=O)O)c2=O` (stereo unspecified), the ED50 in the test with Rattus norvegicus [2] was over 1000 µmol/kg.

For `CCOC(=O)c1cccc(N/N=C2\CCC(C)n3c2ncc(C(=O)O)c3=O)c1` (stereo unspecified), the ED50 with Rattus norvegicus [2] is over 100 µmol/kg.

For `CC(C)c1ccc(N/N=C2\CCC(C)n3c2ncc(C(=O)O)c3=O)cc1` (stereo unspecified), the ED50 was 2.4 µmol/kg in the test on Rattus norvegicus [1] and over 100 µmol/kg in the test with Rattus norvegicus [2]. Also, the EC50 in the test listed under Rattus norvegicus [3] (setting [4]) was determined as 1200 nM.

Consider `CC1CC/C(=N\Nc2ccc(C3CC3)cc2)c2ncc(C(=O)O)c(=O)n21` (stereo unspecified), for which the ED50 was determined as 41.1 µmol/kg with Rattus norvegicus [1] and 100 µmol/kg in the test with Rattus norvegicus [2]. The EC50 in the test listed under Rattus norvegicus [3] (setting [4]) worked out at 1000 nM.

With `CC1CC/C(=N\Nc2ccc(C(F)(F)F)cc2)c2ncc(C(=O)O)c(=O)n21` (stereo unspecified), the ED50 in the test with Rattus norvegicus [1] is 38.6 µmol/kg; in the test on Rattus norvegicus [2], over 1000 µmol/kg. Moreover, in the test filed under Rattus norvegicus [3] (setting [4]), the EC50 came to 280 nM.

In the case of `CC1CC/C(=N\Nc2ccccc2)c2ncc(C(N)=O)c(=O)n21` (stereo unspecified), the ED50 in the test on Rattus norvegicus [2] was over 1000 µmol/kg.

`CC1CC/C(=N\Nc2ccc(C(=O)O)cc2)c2ncc(C(=O)O)c(=O)n21` (stereo unspecified): in the test with Rattus norvegicus [1], the ED50 turned out to be 7.6 µmol/kg. Further, the EC50 in the test listed under Rattus norvegicus [3] (mast cells) is listed as 1000 uM l-1.

Regarding `COc1ccccc1N/N=C1\CCC(C)n2c1ncc(C(=O)O)c2=O` (stereo unspecified), the ED50 in the test with Rattus norvegicus [2] was over 1000 µmol/kg.

For `CCOc1ccc(N/N=C2\CCC(C)n3c2ncc(C(=O)O)c3=O)cc1` (stereo unspecified), the ED50 with Rattus norvegicus [1] is 1.6 µmol/kg; with Rattus norvegicus [2] it was over 100 µmol/kg. For the same compound, the EC50 in the test filed under Rattus norvegicus [3] (setting [4]) stood at 17600 nM.

On to `CC1C/C(=N\Nc2ccccc2)c2ncc(C(=O)O)c(=O)n2C1` (stereo unspecified), for which the ED50 in the test with Rattus norvegicus [1] was 5.7 µmol/kg; in the test with Rattus norvegicus [2], over 320 µmol/kg. Further, in the test listed under Rattus norvegicus [3] (setting [4]), the EC50 came out at 13000 nM.

As to `CC1CC/C(=N\Nc2cccc(Cl)c2)c2ncc(C(=O)O)c(=O)n21` (stereo unspecified), the ED50 in the test on Rattus norvegicus [1] is 0.6 µmol/kg; with Rattus norvegicus [2], over 100 µmol/kg. In the test listed under Rattus norvegicus [3] (mast cells), the EC50 amounted to 311 uM l-1.

For the compound `CC1CCC(=NNc2ccccc2)c2ncc(C(=O)O)c(=O)n21` (stereo unspecified), the ED50 in the test on Rattus norvegicus [1] stood at 0.6 µmol/kg; in the test with Rattus norvegicus [2] it was 1.2 µmol/kg. For the same compound, the EC50 in the test filed under Rattus norvegicus [3] (setting [4]) came out at 2200 nM.

In the case of `CC(=O)c1ccccc1N/N=C1\CCC(C)n2c1ncc(C(=O)O)c2=O` (stereo unspecified), the ED50 with Rattus norvegicus [2] was over 1000 µmol/kg.

On to `CC1CC/C(=N\Nc2ccc(CC(=O)O)cc2)c2ncc(C(=O)O)c(=O)n21` (stereo unspecified), for which the figures for the ED50 in the test on Rattus norvegicus [1] and with Rattus norvegicus [2] were 60.9 µmol/kg and over 100 µmol/kg, respectively. In addition, the EC50 in the test listed under Rattus norvegicus [3] (setting [4]) was 3400 nM.

For `CC1CC/C(=N\Nc2cccc(Br)c2)c2ncc(C(=O)O)c(=O)n21` (stereo unspecified), the ED50 in the test on Rattus norvegicus [1] is 0.4 µmol/kg; in the test with Rattus norvegicus [2] it was over 320 µmol/kg. Further, in the test filed under Rattus norvegicus [3] (setting [4]), the EC50 turned out to be 6700 nM.

Turning to `CC1CCCc2ncc(C(=O)O)c(=O)n21` (stereo unspecified), the ED50 in the test with Rattus norvegicus [1] is 240 µmol/kg.

As for `Cc1ccc(N/N=C2\CCC(C)n3c2ncc(C(=O)O)c3=O)cc1` (stereo unspecified), the ED50 is 1.3 µmol/kg with Rattus norvegicus [1] and over 1000 µmol/kg with Rattus norvegicus [2]. Also, the EC50 in the test filed under Rattus norvegicus [3] (setting [4]) was 280 nM.

For the compound `CC1CC/C(=N\Nc2ccc(I)cc2)c2ncc(C(=O)O)c(=O)n21` (stereo unspecified), the ED50 in the test with Rattus norvegicus [2] was over 1000 µmol/kg.

On to `CC1CC/C(=N\Nc2ccc([N+](=O)[O-])cc2)c2ncc(C(=O)O)c(=O)n21` (stereo unspecified), for which the ED50 in the test on Rattus norvegicus [1] is 0.8 µmol/kg; in the test with Rattus norvegicus [2], over 320 µmol/kg. Moreover, the EC50 in the test filed under Rattus norvegicus [3] (setting [4]) was determined as 8900 nM.

With `Cc1ccccc1N/N=C1\CCC(C)n2c1ncc(C(=O)O)c2=O` (stereo unspecified), the ED50 in the test with Rattus norvegicus [2] is over 1000 µmol/kg.

As for `CC1CC/C(=N\Nc2ccc(C(=O)O)cc2)c2nccc(=O)n21` (stereo unspecified), the ED50 with Rattus norvegicus [1] and in the test with Rattus norvegicus [2] was over 100 µmol/kg throughout. The EC50 in the test listed under Rattus norvegicus [3] (mast cells) is given as 450 uM l-1.

In the case of `CC(=O)c1ccc(N/N=C2\CCC(C)n3c2ncc(C(=O)O)c3=O)cc1` (stereo unspecified), the results for the ED50 with Rattus norvegicus [1] and in the test with Rattus norvegicus [2] were 9.5 µmol/kg and over 100 µmol/kg, respectively. Moreover, in the test filed under Rattus norvegicus [3] (setting [4]), the EC50 worked out at 8100 nM.

Take `CC(=O)c1cccc(N/N=C2\CCC(C)n3c2ncc(C(=O)O)c3=O)c1` (stereo unspecified): the ED50 with Rattus norvegicus [2] was over 1000 µmol/kg.

In the case of `CC1CC/C(=N\Nc2ccc(Br)cc2)c2ncc(C(=O)O)c(=O)n21` (stereo unspecified), the ED50 in the test on Rattus norvegicus [1] was 0.8 µmol/kg; with Rattus norvegicus [2], over 100 µmol/kg. Moreover, the EC50 in the test listed under Rattus norvegicus [3] (setting [4]) is 2000 nM.
